The subject of test [1] is Escherichia coli ATCC 25922. The conditions noted are these: Publicly-known data, CLSI(M100-S16)2006 liquid dilution method; cited from earlier work.
The test system of test [2] is Pseudomonas aeruginosa ATCC 27853. The conditions noted are these: Publicly-known data, CLSI(M100-S16)2006 liquid dilution method; cited from earlier work.
For test [3], the system named is Staphylococcus aureus ATCC 29213. Kind of test: Evaluation test for disinfecting effect, broth dilution method CLSI(M7-A7)2006. The format is cell-based. The note with it: 37°C, 18 hours. The source says: (§1) The following test compounds were examined for the disinfecting activities against Pseudomonas aeruginosa, E.. Coli and staphylococcus aureus, according to a broth dilution method of "CLSI(M7-A7)2006" (Clinical and Laboratory Standards Institute, M7-A7, Methods for Dilution Antimicrobial Susceptibility Tests for Bacteria That Grow Aerobically; Approved Standard-Seventh Edition, 2006),
(§2) • Pseudomonas aeruginosa PAO1 • Pseudomonas aeruginosa ATCC 27853 • Escherichia coli ATCC 25922 • Staphylococcus aureus ATCC 29213 • Staphylococcus aureus Methicillin resistant (MRSA) ATCC 43300
(§3) Each of above-mentioned bacteria was inoculated in a TSB culture medium (Bacto TSB Broth, product of BD) for overnight cultivation at 37°C. The culture solution was applied to a TSB agar plate for about a 20-hour cultivation to form colonies. Three to five colonies were taken from the agar plate, and an average colony of them was inoculated in a 4mL TSB culture medium.. The colony was cultivated at 35°C until the number of microorganisms became 1 × 10^8 to 2 x 10^8 CFU/mL. The number of microorganisms with time was found by measuring changes in absorbency at 590nm of culture solution with time. When the turbidity became equivalent to 0.5 McFarland standard, it was determined that the number of microorganisms reached the target level = 1 × 10^8 to 2 × 10^8 CFU/mL.
(§4) The bacillus culture solution thus obtained was diluted 10-fold within 15 minutes, and a 5µL portion was inoculated in each well of an evaluation 96-well microplate. This 96-well microplate was a sterilized 96-well microplate with U-shaped bottoms (Falcon 35-3918: product of BD), and each well was filled with a 100µL portion of MH culture medium (BBL MH Broth: product of BD). Within 15 minutes after inoculation of the bacillus culture solutions, the test compounds were supplied to the well in a manner of 2-fold graded dilution. The cultivation was then carried out at 37°C for 18 hours.
(§5) The MIC was determined as follows. "S (susceptible)" indicates a concentration which caused 80% or more reduction in the diameter of the aggregation deposited in the bottom of the well, compared to when the test liquid is not used. "R (Resistant)" indicates a concentration that caused less than 80% reduction in diameter. The reduction was measured visually.. "I(Intermediate)" indicates a concentration that cannot be measured visually
(In broth dilution the organism is exposed to a series of concentrations in liquid medium.)

The subject of test [4] is Staphylococcus aureus Methicillin resistant (MRSA) ATCC 43300. The description is as above. The class given is cell-based. The note with it: 37°C, 18 hours.
Description: as §1, §2, §3, §4, §5

The subject of test [5] is Pseudomonas aeruginosa PAO1. The description is as above. The class given is cell-based. The conditions noted are these: 37°C, 18 hours.
Description: as §1, §2, §3, §4, §5

The subject of test [6] is Pseudomonas aeruginosa ATCC 27853. The test is described as above. The conditions noted are these: 37°C, 18 hours. The format is cell-based.
Description: as §1, §2, §3, §4, §5

The subject of test [7] is Escherichia coli ATCC 25922. The description is as above. The conditions noted are these: 37°C, 18 hours. The format is cell-based.
Description: as §1, §2, §3, §4, §5

The subject of test [8] is Staphylococcus aureus ATCC 29213. The conditions noted are these: Publicly-known data, CLSI(M100-S16)2006 liquid dilution method; cited from earlier work.

Converted amounts (≈) assume the structure as drawn. Where two headings read alike, the source gives them in different places.

For the compound `CC(C)(O/N=C(\C(=O)N[C@@H]1C(=O)N2C(C(=O)[O-])=C(C[n+]3ccccc3)CS[C@H]12)c1csc(N)n1)C(=O)O` [CAZ, Ceftazidime], the “MIC (µg/mL) from M100-S16” value in test [1] is 0.06 to 0.5 µg/mL; in test [2] it was 1 to 4 µg/mL; in test [8], 4 to 16 µg/mL. Further, the MIC in test [3] (ATCC29213, I (Intermediate): concentration that cannot be measured visually, read-out: MIC (µg/mL) I) is 4 µg/mL (≈ 7.32 µM); in test [3] (ATCC29213, R (Resistant): concentration that caused less than 80% reduction in diameter of the aggregation, read-out: MIC (µg/mL) R) it was not above 2 µg/mL; in test [3] (ATCC29213, S (susceptible): concentration which caused 80% or more reduction in diameter of the aggregation, read-out: MIC (µg/mL) S) it was not below 8 µg/mL; in test [4] (I (Intermediate): concentration that cannot be measured visually, read-out: MIC (µg/mL) I), 8 µg/mL (≈ 14.6 µM); in test [4] (R (Resistant): concentration that caused less than 80% reduction in diameter of the aggregation, read-out: MIC (µg/mL) R) it was not above 4 µg/mL; in test [4] (S (susceptible): concentration which caused 80% or more reduction in diameter of the aggregation, read-out: MIC (µg/mL) S), not below 16 µg/mL. The MIC in test [5] (PAO1, I (Intermediate): concentration that cannot be measured visually, read-out: MIC (µg/mL) I) is 1 µg/mL (≈ 1.83 µM); in test [5] (PAO1, R (Resistant): concentration that caused less than 80% reduction in diameter of the aggregation, read-out: MIC (µg/mL) R), not above 0.5 µg/mL; in test [5] (PAO1, S (susceptible): concentration which caused 80% or more reduction in diameter of the aggregation, read-out: MIC (µg/mL) S) it was not below 2 µg/mL; in test [6] (ATCC27853, I (Intermediate): concentration that cannot be measured visually, read-out: MIC (µg/mL) I), 2 µg/mL (≈ 3.66 µM); in test [6] (ATCC27853, R (Resistant): concentration that caused less than 80% reduction in diameter of the aggregation, read-out: MIC (µg/mL) R), not above 1 µg/mL; in test [6] (ATCC27853, S (susceptible): concentration which caused 80% or more reduction in diameter of the aggregation, read-out: MIC (µg/mL) S), not below 4 µg/mL. Further, the MIC was 0.125 µg/mL (≈ 0.229 µM) in test [7] (ATCC25922, I (Intermediate): concentration that cannot be measured visually, read-out: MIC (µg/mL) I); not above 0.063 µg/mL in test [7] (ATCC25922, R (Resistant): concentration that caused less than 80% reduction in diameter of the aggregation, read-out: MIC (µg/mL) R); not below 0.25 µg/mL in test [7] (ATCC25922, S (susceptible): concentration which caused 80% or more reduction in diameter of the aggregation, read-out: MIC (µg/mL) S).

The record behind these values is EP2077260B1, “AMIDE COMPOUND OR SALT THEREOF, AND BIOFILM FORMATION INHIBITOR, BIOFILM REMOVER AND BACTERICIDE EACH USING THE AMIDE COMPOUND OR SALT THEREOF” (The University of Tokyo, priority 2006, dated 2008).
